Data reported in publication PMC6199744, “Development of Chemical Proteomics for the Folateome and Analysis of the Kinetoplastid Folateome” (ACS Infectious Diseases, 2018).
Like-named read-outs stand apart in the source and are kept apart here.

What was measured:
Type in all cases: binding
[1] = molecular target: T1, HeLa cell extract proteins (Homo sapiens, UniProt P53634)
T1 construct: endogenous in cells; host or cells: HeLa cell extract

[2] = molecular target: T2, HeLa cell extract proteins (Homo sapiens, UniProt P00505)
T2 construct: endogenous in cells; host or cells: HeLa cell extract
T2 sequence (P00505 30-430): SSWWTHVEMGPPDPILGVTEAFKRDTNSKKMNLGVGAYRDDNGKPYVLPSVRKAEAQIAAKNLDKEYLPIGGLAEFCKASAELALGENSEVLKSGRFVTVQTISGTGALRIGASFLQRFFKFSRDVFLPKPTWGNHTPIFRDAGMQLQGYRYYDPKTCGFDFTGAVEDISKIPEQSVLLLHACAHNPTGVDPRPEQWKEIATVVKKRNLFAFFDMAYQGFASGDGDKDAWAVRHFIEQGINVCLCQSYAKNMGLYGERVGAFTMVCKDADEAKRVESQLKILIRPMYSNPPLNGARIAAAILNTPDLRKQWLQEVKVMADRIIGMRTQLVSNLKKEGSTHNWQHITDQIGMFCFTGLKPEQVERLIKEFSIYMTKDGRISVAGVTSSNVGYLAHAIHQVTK

[3] = molecular target: T3, HeLa cell extract proteins (Homo sapiens, UniProt P26639)
T3 construct: endogenous in cells; host or cells: HeLa cell extract
T3 sequence (P26639 1-723): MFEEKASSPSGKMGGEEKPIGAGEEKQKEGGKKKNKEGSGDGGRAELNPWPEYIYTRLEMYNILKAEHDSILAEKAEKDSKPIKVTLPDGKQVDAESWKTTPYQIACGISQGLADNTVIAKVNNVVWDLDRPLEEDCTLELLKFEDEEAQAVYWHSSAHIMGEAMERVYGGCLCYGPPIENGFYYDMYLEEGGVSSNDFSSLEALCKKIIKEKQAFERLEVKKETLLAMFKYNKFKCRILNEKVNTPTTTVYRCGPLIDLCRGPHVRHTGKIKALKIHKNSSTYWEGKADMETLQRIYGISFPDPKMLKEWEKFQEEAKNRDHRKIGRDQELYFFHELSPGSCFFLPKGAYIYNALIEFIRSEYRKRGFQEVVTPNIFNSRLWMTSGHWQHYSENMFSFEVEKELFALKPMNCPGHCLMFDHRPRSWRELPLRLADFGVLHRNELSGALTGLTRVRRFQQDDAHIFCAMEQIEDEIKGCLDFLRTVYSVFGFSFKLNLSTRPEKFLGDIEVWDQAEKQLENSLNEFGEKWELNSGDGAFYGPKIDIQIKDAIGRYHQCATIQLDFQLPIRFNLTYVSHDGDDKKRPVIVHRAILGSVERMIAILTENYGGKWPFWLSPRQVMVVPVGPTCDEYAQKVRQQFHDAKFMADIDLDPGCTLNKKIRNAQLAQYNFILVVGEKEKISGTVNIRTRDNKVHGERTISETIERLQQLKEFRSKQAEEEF

[4] = molecular target: T4, HeLa cell extract proteins (Homo sapiens, UniProt P31930)
T4 construct: endogenous in cells; host or cells: HeLa cell extract
T4 sequence (P31930 35-480): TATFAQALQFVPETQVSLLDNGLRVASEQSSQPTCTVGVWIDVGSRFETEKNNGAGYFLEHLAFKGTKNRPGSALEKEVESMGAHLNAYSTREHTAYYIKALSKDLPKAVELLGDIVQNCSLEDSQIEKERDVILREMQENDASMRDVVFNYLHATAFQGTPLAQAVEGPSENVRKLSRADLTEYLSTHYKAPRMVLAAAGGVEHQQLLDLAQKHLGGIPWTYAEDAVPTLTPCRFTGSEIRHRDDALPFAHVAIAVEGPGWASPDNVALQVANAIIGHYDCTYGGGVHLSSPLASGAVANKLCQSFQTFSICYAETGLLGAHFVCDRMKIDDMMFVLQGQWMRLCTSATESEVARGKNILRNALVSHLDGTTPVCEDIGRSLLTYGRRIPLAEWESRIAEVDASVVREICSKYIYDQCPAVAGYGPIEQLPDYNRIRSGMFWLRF

[5] = molecular target: T5, HeLa cell extract proteins (Homo sapiens, UniProt P13073)
T5 construct: endogenous in cells; host or cells: HeLa cell extract
T5 sequence (P13073 23-169): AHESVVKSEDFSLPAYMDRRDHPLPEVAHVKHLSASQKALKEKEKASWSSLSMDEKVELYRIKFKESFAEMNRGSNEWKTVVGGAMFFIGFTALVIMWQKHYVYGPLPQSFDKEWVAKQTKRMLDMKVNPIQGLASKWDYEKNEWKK

[6] = molecular target: T6, HeLa cell extract proteins (Homo sapiens, UniProt Q96BY9)
T6 construct: endogenous in cells; host or cells: HeLa cell extract
T6 sequence (Q96BY9 31-339): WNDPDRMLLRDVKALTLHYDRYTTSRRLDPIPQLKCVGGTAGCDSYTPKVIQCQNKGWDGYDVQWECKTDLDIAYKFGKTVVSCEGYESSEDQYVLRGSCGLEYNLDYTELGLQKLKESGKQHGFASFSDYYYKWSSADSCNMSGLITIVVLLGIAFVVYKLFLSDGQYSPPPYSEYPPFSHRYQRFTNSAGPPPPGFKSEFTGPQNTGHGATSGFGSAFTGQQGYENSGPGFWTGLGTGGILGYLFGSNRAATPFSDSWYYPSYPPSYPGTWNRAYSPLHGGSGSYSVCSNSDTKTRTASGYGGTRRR

[7] = molecular target: T7, HeLa cell extract proteins (Homo sapiens, UniProt P24534)
T7 construct: endogenous in cells; host or cells: HeLa cell extract
T7 sequence (P24534 1-225): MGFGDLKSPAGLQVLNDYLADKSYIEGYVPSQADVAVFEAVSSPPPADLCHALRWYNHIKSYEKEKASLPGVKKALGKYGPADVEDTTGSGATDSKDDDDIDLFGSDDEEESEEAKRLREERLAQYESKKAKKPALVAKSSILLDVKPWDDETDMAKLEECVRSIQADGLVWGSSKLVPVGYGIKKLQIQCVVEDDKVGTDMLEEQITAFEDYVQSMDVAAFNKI

[8] = molecular target: T8, HeLa cell extract proteins (Homo sapiens, UniProt Q9UI12)
T8 construct: endogenous in cells; host or cells: HeLa cell extract
T8 sequence (Q9UI12 whole entry): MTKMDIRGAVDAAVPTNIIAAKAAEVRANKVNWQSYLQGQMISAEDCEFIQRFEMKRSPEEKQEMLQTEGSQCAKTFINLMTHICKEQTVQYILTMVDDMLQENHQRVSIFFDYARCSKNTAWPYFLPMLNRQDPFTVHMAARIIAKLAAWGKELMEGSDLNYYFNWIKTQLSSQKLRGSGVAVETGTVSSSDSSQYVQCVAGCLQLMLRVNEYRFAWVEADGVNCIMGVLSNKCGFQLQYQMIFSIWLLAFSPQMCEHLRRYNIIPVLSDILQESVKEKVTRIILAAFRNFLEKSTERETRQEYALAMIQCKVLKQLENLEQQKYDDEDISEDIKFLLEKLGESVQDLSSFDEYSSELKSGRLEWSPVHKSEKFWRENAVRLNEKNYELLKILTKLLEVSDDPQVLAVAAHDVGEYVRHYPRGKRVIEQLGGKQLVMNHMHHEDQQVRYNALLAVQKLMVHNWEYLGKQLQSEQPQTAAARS

[9] = HeLa, protein CTSC (DIPEPTIDYL-PEPTIDASE 1 PRECURSOR)
[10] = HeLa, protein TMEM66 (TRANSMEMBRANE PROTEIN 66 PRECURSOR)

T1 sequence (P53634 25-463): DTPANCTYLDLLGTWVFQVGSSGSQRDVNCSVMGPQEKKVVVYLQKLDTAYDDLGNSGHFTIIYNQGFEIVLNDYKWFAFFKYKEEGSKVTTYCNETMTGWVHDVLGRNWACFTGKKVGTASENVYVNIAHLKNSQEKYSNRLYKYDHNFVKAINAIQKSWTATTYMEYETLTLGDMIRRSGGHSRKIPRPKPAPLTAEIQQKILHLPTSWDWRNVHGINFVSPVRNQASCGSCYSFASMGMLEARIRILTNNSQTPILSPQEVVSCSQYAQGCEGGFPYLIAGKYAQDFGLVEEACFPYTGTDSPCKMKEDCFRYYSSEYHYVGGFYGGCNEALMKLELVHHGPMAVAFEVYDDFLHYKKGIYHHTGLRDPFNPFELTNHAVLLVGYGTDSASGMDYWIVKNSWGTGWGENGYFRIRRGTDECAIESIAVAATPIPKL

SMILES | fold changes relative to vehicle control [1, 9] | fold changes relative to vehicle control ([2]; HeLa, protein GOT2) | fold changes relative to vehicle control ([3]; HeLa, protein TARS) | fold changes relative to vehicle control ([4]; HeLa, captured protein UQCRC1) | fold changes relative to vehicle control ([5]; HeLa, protein COX4I1) | fold changes relative to vehicle control ([7]; protein EEF1B2, HeLa) | fold changes relative to vehicle control ([8]; HeLa, protein ATP6V1H) | fold changes relative to vehicle control ([1]; protein CTSC, HeLa) | fold changes relative to vehicle control ([2]; protein GOT2, HeLa) | fold changes relative to vehicle control ([3]; protein TARS, HeLa) | fold changes relative to vehicle control ([4]; HeLa, protein UQCRC1) | fold changes relative to vehicle control ([6]; protein TMEM66, HeLa) | also measured
Nc1nc2c(c(=O)[nH]1)N(C=O)C(CNc1ccc(C(=O)N[C@@H](CCC(=O)O)C(=O)O)cc1)CN2 (some centres unmarked) [LEU, leucovorin] | 1.03 | 0.94 | 1.03 | 0.99 | 0.9 | 0.84 | 1.04 | – | – | – | – | – | fold changes relative to vehicle control ([6]; HeLa, protein TMEM66 (TRA[…] 66 PRECURSOR)): 1.06
Nc1nc2[nH]cc(CCc3ccc(C(=O)N[C@@H](CCC(=O)O)C(=O)O)cc3)c2c(=O)[nH]1 [PTX, pemetrexed] | – | – | – | – | – | – | – | – | – | – | – | – | fold changes relative to vehicle control [1]: 0.84; fold changes relative to vehicle control [2]: 0.99; fold changes relative to vehicle control [3]: 1.02; fold changes relative to vehicle control [4]: 0.88; fold changes relative to vehicle control [5]: 0.98; fold changes relative to vehicle control [6]: 0.92; fold changes relative to vehicle control [7]: 1; fold changes relative to vehicle control [8]: 0.99
CCCCCCOc1ccc(Cc2cnc(N)nc2N)cc1 [compound 1] | – | – | – | – | 1.03 | 1.03 | 1.24 | 0.89 | 1.12 | 1.27 | 1.09 | 1.16 | –
CCCCCCOc1cccc(Cc2cnc(N)nc2N)c1 [compound 2] | – | – | – | – | 1.21 | 1.63 | 1.21 | 0.95 | 2.22 | 2.02 | 0.92 | 1.29 | –
Nc1nc2cccc(-c3ccccc3)c2n1Cc1ccc(Cl)c(Cl)c1 [compound 3] | – | – | – | – | 1 | 1.02 | 1.17 | 0.86 | 0.84 | 0.98 | 0.96 | 0.98 | –
NCCOCCOCC(=O)Nc1nc2ncc(CNc3ccc(C(=O)NC(CCC(=O)O)C(=O)O)cc3)nc2c(=O)[nH]1 (centres unmarked) [compound 6] | 0.82 | 1.16 | 1.12 | 0.95 | 1.04 | 1.07 | 1.13 | – | – | – | – | – | fold changes relative to vehicle control [6, 10]: 0.85
NCCCNc1ccc(C(=O)NC(CCC(=O)O)C(=O)O)cc1 (centres unmarked) [compound 7] | 0.97 | 0.94 | 0.97 | 0.99 | 1.17 | 0.87 | 1.01 | – | – | – | – | – | fold changes relative to vehicle control [6, 10]: 0.87
